Literature values in patent US6558710B1, “Topical zinc compositions and methods of use” (priority 1999, dated 2003).
Read-outs that look alike come from different tables or passages of the source.

Columns and labels:
[1] = solutions of 0.2-1%, applied circumorally
[2] = test system: HIV; conditions: 1-1.5% zinc acetate, 2 hours, in vitro (U.S. Pat. No. 5,545,673)

O=S(=O)([O-])[O-].[Zn+2] [zinc sulfate]
dermal irritancy (1% aqueous): not overtly irritant
irritation and side effects [1]: severe irritation, unpleasant dryness and stimulate the emetic reflex

zinc pyrithione
dermal irritancy (20% suspension): not overtly irritant

[Cl-].[Cl-].[Zn+2] [zinc chloride]
dermal irritancy (1% aqueous): severely irritant

CC(=O)[O-].CC(=O)[O-].[Zn+2] [zinc acetate]
dermal irritancy (20% aqueous): slightly less irritant
HIV infectivity [2]: reduced or completely eliminated

[O]=[Zn] [zinc oxide]
dermal irritancy (20% suspension): not overtly irritant
stimulation of epidermal healing (in comparison to the more irritating and more water-soluble zinc salts): only marginally effective
